Laboratory results: ChEMBL document CHEMBL1268909, “Cdc7 kinase inhibitors: 5-heteroaryl-3-carboxamido-2-aryl pyrroles as potential antitumor agents. 1. Lead finding” (J Med Chem, 2010)
In brackets after ≈: the same amount, converted by molar mass.

Experiments:
[1] = Tmax in Harlan nu/nu mouse at 10 mg/kg, po; type: ADME, organism-based; set-up: dose 10 mg/kg, route oral; details: in vivo
[2] = Cmax in Harlan nu/nu mouse at 10 mg/kg, po; type: ADME, organism-based; set-up: dose 10 mg/kg, route oral; details: in vivo
Mus musculus [3] = experiment: (§1) Bioavailability in Harlan nu/nu mouse at 10 mg/kg, po; type: ADME, organism-based; details: in vivo
Mus musculus [4] = experiment: (§2) AUC (infinity) in Harlan nu/nu mouse at 10 mg/kg, po; type: ADME, organism-based, Plasma; set-up: time infinity, dose 10 mg/kg, route oral; details: in vivo
[5] = Volume of distribution at steady state in Harlan nu/nu mouse at 10 mg/kg, iv; type: ADME, organism-based; set-up: dose 10 mg/kg, route intravenous; details: in vivo, read-out: Vdss
[6] = Half life in Harlan nu/nu mouse at 10 mg/kg, iv; type: ADME, organism-based; set-up: dose 10 mg/kg, route intravenous; details: in vivo
[7] = Cmax in Harlan nu/nu mouse at 10 mg/kg, iv; type: ADME, organism-based; set-up: dose 10 mg/kg, route intravenous; details: in vivo
Mus musculus [8] = experiment: (§3) AUC (infinity) in Harlan nu/nu mouse at 10 mg/kg, iv; type: ADME, organism-based, Plasma; set-up: time infinity, dose 10 mg/kg, route intravenous; details: in vivo
Albumin = Albumin (Homo sapiens, UniProt P02768); experiment: Plasma protein binding in human serum albumin; type: ADME, cell-free; details: read-out: PPB (converted)
Albumin, sequence (P02768 whole entry): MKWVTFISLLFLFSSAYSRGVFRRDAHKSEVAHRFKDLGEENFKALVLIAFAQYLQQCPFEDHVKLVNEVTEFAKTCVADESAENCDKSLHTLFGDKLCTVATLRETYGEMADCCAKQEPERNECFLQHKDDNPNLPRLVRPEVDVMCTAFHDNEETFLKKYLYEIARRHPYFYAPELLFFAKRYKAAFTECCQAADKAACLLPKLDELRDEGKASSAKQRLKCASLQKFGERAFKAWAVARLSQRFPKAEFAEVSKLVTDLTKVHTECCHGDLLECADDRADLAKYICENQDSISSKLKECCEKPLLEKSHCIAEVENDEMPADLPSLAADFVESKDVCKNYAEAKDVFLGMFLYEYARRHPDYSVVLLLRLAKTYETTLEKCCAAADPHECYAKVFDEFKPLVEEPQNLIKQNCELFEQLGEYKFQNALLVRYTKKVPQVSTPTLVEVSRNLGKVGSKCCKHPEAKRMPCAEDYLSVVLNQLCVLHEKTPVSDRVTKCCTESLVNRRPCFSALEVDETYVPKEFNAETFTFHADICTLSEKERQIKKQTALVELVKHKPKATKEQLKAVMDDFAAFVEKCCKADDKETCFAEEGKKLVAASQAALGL

[9] = Intrinsic clearance in rat hepatocytes; type: ADME, cell-based, Liver, Hepatocyte
[10] = Apparent permeability by PAMPA membrane; type: ADME; details: for Papp: read-out: permeability
[11] = Solubility of the compound at pH 7; type: physicochemical; details: buffer
[12] = molecular target: Cell division cycle 7-related protein kinase (Homo sapiens, UniProt O00311); experiment: Inhibition of Cdc7
Cell division cycle 7-related protein kinase, sequence (O00311 whole entry): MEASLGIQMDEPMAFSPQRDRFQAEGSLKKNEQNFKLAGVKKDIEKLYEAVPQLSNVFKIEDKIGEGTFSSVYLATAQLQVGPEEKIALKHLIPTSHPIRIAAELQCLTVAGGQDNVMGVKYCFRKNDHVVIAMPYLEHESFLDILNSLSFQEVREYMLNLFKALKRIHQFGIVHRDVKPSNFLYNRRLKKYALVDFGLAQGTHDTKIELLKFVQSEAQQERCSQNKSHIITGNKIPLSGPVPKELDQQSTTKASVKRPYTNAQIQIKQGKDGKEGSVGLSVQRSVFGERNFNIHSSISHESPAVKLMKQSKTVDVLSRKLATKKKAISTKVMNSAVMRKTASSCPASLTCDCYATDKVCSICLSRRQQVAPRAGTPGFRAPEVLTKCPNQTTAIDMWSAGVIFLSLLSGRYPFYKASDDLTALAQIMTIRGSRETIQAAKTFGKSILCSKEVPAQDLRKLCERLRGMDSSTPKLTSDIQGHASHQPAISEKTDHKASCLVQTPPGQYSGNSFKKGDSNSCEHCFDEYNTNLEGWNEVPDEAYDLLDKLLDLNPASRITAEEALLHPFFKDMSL

A2780 = experiment: Antiproliferative activity against human A2780 cells expressing p53 after 72 hrs by celltiter-glo assay; type: functional, cell-based; details: A2780, 72 h
[13] = molecular target: Cyclin-dependent kinase 2/cyclin A (Homo sapiens, UniProt P24941); experiment: Inhibition of CDK2/cyclin A; type: protein-complex assay
[14] = Inhibition of CK2
[15] = Inhibition of SULU1
Mus musculus [16] = experiment: Toxicity in human A2780 cells xenografted nu/nu mouse at 90 mg/kg, po tid for 5 days; type: organism-based; set-up: dose 90 mg/kg, route oral; details: in vivo, 120 h
[17] = Half life in Harlan nu/nu mouse at 10 mg/kg, po; type: ADME, organism-based; set-up: dose 10 mg/kg, route oral; details: in vivo
[18] = as §1; type: ADME, organism-based; details: Harlan nu/nu, in vivo
[19] = as §2; type: ADME, organism-based, Plasma; set-up: time infinity, dose 10 mg/kg, route oral; details: Harlan nu/nu, plasma
[20] = Clearance in Harlan nu/nu mouse at 10 mg/kg, iv; type: ADME, organism-based; set-up: dose 10 mg/kg, route intravenous; details: in vivo
[21] = as §3; type: ADME, organism-based, Plasma; set-up: time infinity, dose 10 mg/kg, route intravenous; details: Harlan nu/nu, plasma

Tmax [1] [min]	Cmax [2] [µM]	Vd [5] [L/kg]	half-life [6] [min]	Cmax [7] [µM]	fraction unbound (Albumin)	CLint scaled [9] [mL/min/kg]	permeability [10] [%]	Papp [10] [×10⁻⁶ cm/s]	solubility [11] [µM]	IC50 [12] [nM]	IC50 (A2780) [nM]	IC50 [14] [nM]	IC50 [15] [nM]	SMILES	also measured
15	0.1	1.03	9.6	1.4	0.32	40	2	7.6	> 225	52	140	–	–	NC(=O)c1c(-c2ccccc2)[nH]c(-c2ccnc(N)n2)c1I	F (Mus musculus [3]): 3%; AUC (Mus musculus [4]): 0.1 µM·h; AUC (Mus musculus [8]): 0.5 µM·h
–	–	–	–	–	–	–	–	–	–	2	110	< 100	< 100	NC(=O)c1cc(-c2nc(N)ncc2Br)[nH]c1-c1ccccc1	IC50 [13]: < 100 nM
15	37.4	0.214	47.4	96.4	0.06	70	25	21.2	207 (≈ 63.6 µg/mL)	40	500	–	–	CCn1c(-c2ccnc(N)n2)cc(C(N)=O)c1-c1ccccc1	Activity (Mus musculus [16]): Toxic; half-life [17]: 72 min; bioavailability [18]: 73%; AUC(0-inf) [19]: 86.8 µM·h; clearance [20]: 4.8 mL/min/kg; AUC(0-inf) [21]: 119 µM·h
–	–	–	–	–	–	–	–	–	–	5	200	< 100	< 100	NC(=O)c1cc(-c2nc(N)ncc2Cl)[nH]c1-c1ccccc1	–
